Read-outs that look alike come from different tables or passages of the source. Ends that are not written are not given here.
Experiments:
C. albicans = details: some species of C. albicans; cited from earlier work
Text: High levels of Hst5 were found in the saliva of patients with periodontal and oral fungal infections.

[1] = for HPLC peak of intact peptide after 8 h (in words): 50 µg mL^-1 peptide in 10-fold diluted human WSS, RP-HPLC C18, UV 280 nm; for Time after which the peptide was still found in the samples in whole saliva: abstract, cationic-PAGE and HPLC assays
Experimental: (§4) After an informed consent was obtained from all participants, stimulated whole saliva (WS) samples were collected from healthy, non-smoking adult male and female volunteers ranging from 25 to 39 years old. WS was obtained for three volunteers with good general oral health who were not taking medications that could alter their salivary flow and was performed as described previously in [29, 39]. Salivary secretion was stimulated by chewing a piece of Parafilm wax. WS was collected between 9 and 11 am, at least 2 h after the last meal. The salivary secretion was collected using a collecting tube that was kept on ice until obtaining 5.0 mL. The total volume of collected saliva was centrifuged at 4500× g (Sorvall™ ST 16 Centrifuge—Thermo Fisher Scientific, Waltham, MA, USA) at 4 °C for a period of 30 min to separate bacteria, cells and residues. The total whole saliva pellet and the total whole saliva supernatant (WSS) were separated, and the WSS was pooled and used for the degradation assay.
To assess and compare proteolysis degradation in the WS environment, all the peptides were added to WSS to observe their degradation over time by cationic-PAGE and HPLC. […] After 0, 0.5, 1.5, 4, 6, 8, 24 and 48 h of incubation, two aliquots of 100 µL were removed (one for the cationic-PAGE analysis another for HPLC analysis). After that, the aliquots were boiled for 5 min to terminate proteolytic activity. Subsequently the aliquots were diluted in a buffer containing 80% acetonitrile/19.9% H2O/0.1% trifluoroacetic acid, dried using a Vacufuge concentrator (Eppendorf, Westbury, NY, USA) and desalted using ZipTip® Pipette Tips (Merk, Rahway, NJ, USA) to concentrate and purify the samples [29].
The aliquots collected for the HPLC analysis were also dried, desalted and resuspended in 30 μL of 10 mM Tris·HCl pH 7.2 buffer solution. Then, 30 µL was analyzed by HPLC in analytical mode using a Waters Symmetry® C18 5 µm, 4.6 × 250 mm reverse phase column (Part No. WAT054275) (Waters, Milford, MA, USA). The solvents used were all chromatographic grade (purchase from Sigma-Aldrich®, St. Louis, MO, USA) and the water used was ultrapure. The chromatographic conditions were solvents A (0.045% TFA/H2O) and B (0.036% TFA/ACN), in a gradient of 5% to 95% B in 30 min, with a flow of 0.53 mL min^−1 at a detector wavelength of 280 nm, using a Waters Alliance 2695 HPLC connected to a Waters 2996 photodiode array detector (Waters, Milford, MA, USA).

[2] = test system: C. albicans ATCC 10231 (fluconazole-resistant); details: fluconazole-resistant strain, Sabouraud Dextrose Broth, 37 °C, 48 h, OD 595 nm, triplicate
Experimental: (§1) For the antifungal tests, the strains C. albicans ATCC 90028, C. albicans ATCC 18804 and C. albicans ATCC 10231 were donated by the National Institute of Quality Control in Health (INCQS—Fundação Oswaldo Cruz—Fiocruz, Rio de Janeiro, Brazil). To prepare C. albicans for the tests, the lyophilized microorganism was initially reactivated in Sabouraud Dextrose Broth (Kasvi, Pinhais, Brazil) and incubated at 37 °C for 24 h. Then, the yeasts were seeded in Sabouraud Dextrose Agar and incubated for 48 h at 37 °C. Finally, the stock culture obtained was stored in a refrigerator at 4 °C for 3 months.
(§2) To prepare the standardized suspensions, some colonies of C. albicans stock cultures were seeded in Sabouraud Dextrose Broth and incubated for 24 h at 37 °C. After this time, a small aliquot of the inoculum was transferred to sterile Sabouraud Dextrose Broth to obtain a suspension with optical density (OD) between 0.10 and 0.15 (530 nm), with approximate concentration of 1 × 10^6 CFU mL^−1 [34, 35]. Finally, the suspension was diluted to obtain a concentration of 1 × 10^3 CFU mL^−1, which was used in the tests described below.
(§3) The antifungal activity tests were performed using broth microdilution. The broth microdilution was performed as described in the M27-A3 document of Clinical and Laboratory Standards Institute (CLSI) with modifications. The medium used was Sabouraud Dextrose Broth (SDB). The synthetic peptides were dissolved in a Tris·HCl 10 mM pH 7.2 buffer and added to the plate containing SDB for a final concentration in the first well of 160 µmol L^−1. The cell suspension was prepared as described under “Microorganisms and growth conditions”. This suspension was inoculated on a microdilution plate previously prepared with the peptides diluted in a concentration range from 160 to 0.31 µmol L^−1. The control drug used was fluconazole (FLU), diluted in deionized water. The plates were incubated at 37 °C for 48 h and at the end of the incubation time, the OD in each well was read in a spectrophotometer at 595 nm. The test was performed in triplicate for each of the strains.

C. albicans ATCC 18804 = details: ATCC 18804, 48 h
Experimental: as §1, §2, §3

in vitro = details: both, human, 10-fold diluted pooled whole saliva supernatant (WSS)
Experimental: as §4
(§5) To assess and compare proteolysis degradation in the WS environment, all the peptides were added to WSS to observe their degradation over time by cationic-PAGE and HPLC. To investigate the degradation of each peptide, 50 µg mL^−1 of synthetic peptides 0WHst5, WP113, 8WH5, 7WH5 and 6WH5 were added to 10-fold diluted WSS. After 0, 0.5, 1.5, 4, 6, 8, 24 and 48 h of incubation, two aliquots of 100 µL were removed (one for the cationic-PAGE analysis another for HPLC analysis). After that, the aliquots were boiled for 5 min to terminate proteolytic activity. Subsequently the aliquots were diluted in a buffer containing 80% acetonitrile/19.9% H2O/0.1% trifluoroacetic acid, dried using a Vacufuge concentrator (Eppendorf, Westbury, NY, USA) and desalted using ZipTip® Pipette Tips (Merk, Rahway, NJ, USA) to concentrate and purify the samples [29].
(§6) For the cationic-PAGE, the aliquots were dried using a Vacufuge concentrator and resuspended in sample buffer containing 0.04% methyl green (Thermo Fisher Scientific, Waltham, MA, USA) in 40% sucrose. Then, 5 μg of each peptide was used as standard for the test. The stacking and separation gels were polymerized using 100 W incandescent light for 9 min each and the electrophoresis was carried out at a constant voltage of 120 V. The gels were stained with 0.1% Coomassie brilliant blue (w/v), 8% methanol (v/v) and 7% acetic acid (v/v) overnight with agitation. Destaining was carried out with 40% methanol, 10% acetic acid and 50% water (v/v). The extent of degradation was quantified by Image Lab using the relative quantity tool.

[3] = cationic-PAGE; for Peptide remaining (band quantification): 0 h, 50 µg mL^-1 peptide in 10-fold diluted pooled human WSS, Coomassie, Image Lab relative quantity, mean ± SD, duplicate samples; for Band of the peptide in the gel at 8 h (in words) / Time at which the band was no longer observed in the gel (total/complete degradation): 50 µg mL^-1 peptide in 10-fold diluted human WSS
Experimental: as §4, §5, §6

C. albicans ATCC 90028 = details: ATCC 90028, 48 h, 20 µmol L^-1
Experimental: as §1, §2, §3

Compound | Minimum inhibitory concentration (MIC) (C. albicans) | HPLC peak of intact peptide after 8 h (in words) [1] | Time after which the peptide was still found in the samples in whole saliva [1] | Inhibition of C. albicans ATCC 10231 ([2]; peptide 160 µmol L^-1) | Inhibition of C. albicans ATCC 18804 (C. albicans ATCC 18804; 80 µmol L^-1) | remaining at 0.5 h, 50 µg mL^-1 (in vitro) | remaining at 4 h, 50 µg mL^-1 (in vitro) | remaining at 6 h, 50 µg mL^-1 (in vitro) | remaining at 8 h, 50 µg mL^-1 (in vitro) | remaining at 24 h, 50 µg mL^-1 (in vitro) | remaining at 48 h, 50 µg mL^-1 (in vitro) | Peptide remaining (band quantification) [3] | Band of the peptide in the gel at 8 h (in words) [3] | Inhibition of C. albicans ATCC 90028 (C. albicans ATCC 90028) | Time at which the band was no longer observed in the gel (total/complete degradation) [3] | Inhibition of C. albicans ATCC 18804 (C. albicans ATCC 18804; 20 µmol L^-1) | Inhibition of C. albicans ATCC 18804 (C. albicans ATCC 18804; 160 µmol L^-1) | Inhibition of growth of C. albicans ATCC 10231 ([2]; peptide 40 µmol L^-1) | Inhibition of C. albicans ATCC 18804 (C. albicans ATCC 18804; 40 µmol L^-1)
Histatin 5 [Hst5] | 8 to 16 µg/mL |  |  |  |  |  |  |  |  |  |  |  |  |  |  |  |  |  | 
WKRHHGYK [Peptide 7WH5] |  | still detectable | ≥ 8 h | 90.9% | greater than 80% | 100 ± 4.5% | 86.2 ± 3.1% | 55.9 ± 5.8% | 49.6 ± 2.4% | 19.1 ± 7.5% | 6.9 ± 1% | 100.0 ± 0.0% | possible to visualize the band |  |  |  |  |  | 
WAKRHHGYKRKFH [WP113] |  | disappeared |  |  |  | 89.5 ± 7.3% | 7.23 ± 8.17% |  |  |  |  | 100.0 ± 0.0% |  | 76% | > 4 h |  |  |  | 
C[C@H](NC(=O)[C@H](Cc1c[nH]cn1)NC(=O)[C@H](CO)NC(=O)[C@H](CC(=O)O)NC(=O)[C@@H](N)Cc1c[nH]c2ccccc12)C(=O)N[C@@H](CCCCN)C(=O)N[C@@H](CCCNC(=N)N)C(=O)N[C@@H](Cc1c[nH]cn1)C(=O)N[C@@H](Cc1c[nH]cn1)C(=O)NCC(=O)N[C@@H](Cc1ccc(O)cc1)C(=O)N[C@@H](CCCCN)C(=O)N[C@@H](CCCNC(=N)N)C(=O)N[C@@H](CCCCN)C(=O)N[C@@H](Cc1ccccc1)C(=O)N[C@@H](Cc1c[nH]cn1)C(=O)N[C@@H](CCC(=O)O)C(=O)N[C@@H](CCCCN)C(=O)N[C@@H](Cc1c[nH]cn1)C(=O)N[C@@H](Cc1c[nH]cn1)C(=O)N[C@@H](CO)C(=O)N[C@@H](Cc1c[nH]cn1)C(=O)N[C@@H](CCCNC(=N)N)C(=O)NCC(=O)N[C@@H](Cc1ccc(O)cc1)C(=O)O [Peptide 0WHst5] |  |  |  |  |  | 91 ± 17% |  |  |  |  |  |  |  | 75% | ≤ 4 h | greater than 80% |  |  | 
WKRHHGY [Peptide 6WH5] |  | still detectable | ≥ 8 h |  | above 70% | 98.8 ± 1.1% | 79.3 ± 9.8% | 52.4 ± 7% | 30.6 ± 4% | 16.5 ± 5.9% | 8.3 ± 6.2% | 100.0 ± 0.0% | possible to visualize the band |  |  |  | greater than 80% |  | 
WKRHHGYKR [Peptide 8WH5] |  | still detectable | ≥ 8 h |  |  | 99.9 ± 8% | 80.3 ± 13% | 62 ± 8.4% | 44.2 ± 0.9% | 8.6 ± 4.4% | 3.5 ± 0.8% | 100.0 ± 0.0% | possible to visualize the band |  |  |  |  | 85% | greater than 80%

Source: article PMC12113730 (Microorganisms, 2025)
